Patent publication US9649297B2, “Treatment of ADHD” (Gosforth Centre (Holdings) Pty Ltd., priority 2007, dated 2017)
Counter-ions that a name gives are not always drawn.

Experiments:
[1] = system: epileptics and individuals with bipolar disorders; conditions: per day; usual minimum anti-convulsant dose; cited from earlier work
[2] = system: patients who had symptoms of ADHD; experiment: Clinical study with anti-epileptic mood stabilisers alone in patients with symptoms of ADHD (Example 3); type: in vivo, human; conditions: for patient-reported improvements (self and other rating scales, clinical assessments): monotherapy without stimulant, topiramate 12.5-50 mg/day, Phenytoin 30-60 mg/day, valproate same dose range as combined treatment
Excerpt: The improvements assessed using self and other rating scales objective psychometric tool together with repeated clinical assessments.

ADHD patients = system: ADHD patients
Protocol: A. Topiramate in Combination with Dexamphetamine (n=11)
The third trial clinical has been with phenytoin and a psychostimulant (n=8). Phenytoin is less often used for its psychoactive properties than either valproate or topiramate. […] The assessment methods were as per the trials with valproate and topiramate.
C. Phenytoin in Combination with Dexamphetamine (n=6)
E. Sodium Valproate in Combination with Methylphenidate (n=4) • Sodium Valproate: average 1.6 mg/kg/day (130 mg/day) • Methylphenidate: average 1.2 mg/kg/day (84 mg/day)

adults with ADHD = system: adults with ADHD
Protocol: The initial dosages used were from 15 to 70 mg/day of dexamphetamine and from 100 to 700 mg/day of VPA (Epilim) (=approximately 2 to 10 mg/kg/day).
The determination of the dose for the dexamphetamine was undertaken in a clinical sensitive open label manner. The dose was titrated upwards dependent on the clinical response and the freedom from side-effects. The dose range was between 15 and 70 mg a day. The frequency of the dosing also varied dependent upon the clinical response. The usual dose interval was between two to four hours. This dosing adjustment took place prior to the commencement of the sodium valproate. The sodium valproate medication was initiated once a day at 50 mg tablet or elixir and titrated upwards dependent on response, but not more than one increase every three days. The dose was given as a once or twice a day regime. During the titration phase, if clinically possible, no other adjustments to the pharmacotherapy were undertaken.
The dosages of sodium valproate, after adjustment, varied between 50 mg/day, 100 mg/day, 150 mg/day or 200 mg/day (number of patients—120), with the majority of patients receiving between 50 to 150 mg/day with […] usually the maximum.
The results were assessed using the Conners Adult ADHD Rating scales completed by the patient and observer (usually partner or parent). In a sample of 26 patients who completed self CAARS rating scales at; pre treatment, stable on stimulant and stable on anti-epileptic drug (AED).

[3] = system: patients with a diagnosis of GAD; experiment: Treatment of Generalised Anxiety Disorder (GAD) with low dose AED (Example 5); type: in vivo, human; conditions: 50 to 150 mg, without co-administration of a stimulant
Protocol: The diagnostic criteria cited for inclusion in this study included reference to excessive anxiety and worry which had been present for at least 6 months and which was difficult to control and associated with difficulty concentrating, becoming easily fatigued, restlessness or feeling keyed up or on edge and sleep disturbance. […] The medication was well tolerated with few side effects at the dose given. The improvement was evaluated using self and observer rating scales together with clinician review. As in the ADHD trials response usually commenced within 3-7 days. Due to the robust and persistent benefit, six months at the time of writing, many of the other psychotropic medications were reduced or even ceased.

[4] = low dose sodium valproate with dexamphetamine

SMILES: CCC1(c2ccccc2)C(=O)NC(=O)NC1=O.CNC(C)CC1CCCCC1 [Barbexaclone]
- Minimum Dose/day effective for mood stabilisation [1]: 200 mg in divided doses

SMILES: NC(=O)N1c2ccccc2C=Cc2ccccc21 [Carbamazepine, (Z)-5H-dibenzo[b,f]azepine-5-carboxamide]
- Minimum Dose/day effective for mood stabilisation [1]: 400 mg

SMILES: CN1C(=O)CC(=O)N(c2ccccc2)c2cc(Cl)ccc21 [Clobazam]
- Minimum Dose/day effective for mood stabilisation [1]: 5 mg/kg daily

SMILES: O=C1CN=C(c2ccccc2Cl)c2cc([N+](=O)[O-])ccc2N1 [Clonazepam]
- Minimum Dose/day effective for mood stabilisation [1]: 1 mg

SMILES: CCN1C(=O)OC(C)(C)C1=O [Ethadione]
- Minimum Dose/day effective for mood stabilisation [1]: 1000 mg

SMILES: CCC1(C)CC(=O)NC1=O (centres unmarked) [Ethosuximide]
- Minimum Dose/day effective for mood stabilisation [1]: 1000 mg

SMILES: CCN1C(=O)NC(c2ccccc2)C1=O (centres unmarked) [Ethotoin, 3-ethyl-5-phenyl-imidazolidine-2,4-dione]
- Minimum Dose/day effective for mood stabilisation [1]: 1000 mg

SMILES: NC(=O)OCC(COC(N)=O)c1ccccc1 [Felbamate]
- Minimum Dose/day effective for mood stabilisation [1]: 1200 mg

SMILES: O=C1NC(c2ccccc2)(c2ccccc2)C(=O)N1COP(=O)(O)O [Fosphenytoin Sodium]
- Minimum Dose/day effective for mood stabilisation [1]: 10 mg/kg

SMILES: NCC1(CC(=O)O)CCCCC1 [Gabapentin, 2-[1-(aminomethyl)cyclohexyl]acetic acid]
- Minimum Dose/day effective for mood stabilisation [1]: 900 mg

SMILES: Nc1nnc(-c2cccc(Cl)c2Cl)c(N)n1 [Lamotrigine]
- Minimum Dose/day effective for mood stabilisation [1]: 100 mg

SMILES: CC[C@@H](C(N)=O)N1CCCC1=O [Levetiracetam]
- Minimum Dose/day effective for mood stabilisation [1]: 1000 mg

SMILES: COC1=CC(=O)OC1C(O)c1ccccc1Cl (centres unmarked) [Losigamone]
- Minimum Dose/day effective for mood stabilisation [1]: 1500 mg

SMILES: CCC1(c2ccccc2)NC(=O)N(C)C1=O (centres unmarked) [Mephenytoin]
- Minimum Dose/day effective for mood stabilisation [1]: 200 mg

SMILES: NC(=O)N1c2ccccc2CC(=O)c2ccccc21 [Oxcarbazepine, 10,11-Dihydro-10-oxo-5H-dibenz[b,f]azepine-5-carboxamide]
- Minimum Dose/day effective for mood stabilisation [1]: 600 mg

SMILES: CCC(C(=O)NC(N)=O)c1ccccc1 (centres unmarked) [Pheneturide]
- Minimum Dose/day effective for mood stabilisation [1]: 600 mg

SMILES: O=C1NC(=O)C(c2ccccc2)(c2ccccc2)N1 [Phenytoin, 5,5-diphenylimidazolidine-2,4-dione]
- patient-reported improvements (self and other rating scales, clinical assessments) [2]: improvements in the organisation of thoughts in conversation and reading comprehension
- Minimum Dose/day effective for mood stabilisation [1]: 200 mg
- overall effect and tolerability (ADHD patients; phenytoin at low dose with a psychostimulant, n=8): robust and well tolerated effect in eight patients

SMILES: CC(C)C[C@H](CN)CC(=O)O [Pregabalin, (S)-3-(aminomethyl)-5-methylhexanoic acid]
- Minimum Dose/day effective for mood stabilisation [1]: 300 mg

SMILES: CCC1(c2ccccc2)C(=O)NCNC1=O [Primidone]
- Minimum Dose/day effective for mood stabilisation [1]: 750 mg

SMILES: NC(=O)c1cn(Cc2c(F)cccc2F)nn1 [Rufinamide]
- Minimum Dose/day effective for mood stabilisation [1]: 400 mg

SMILES: NS(=O)(=O)c1ccc(N2CCCCS2(=O)=O)cc1 [Sultiame]
- Minimum Dose/day effective for mood stabilisation [1]: 200 mg

SMILES: Cc1ccsc1C(=CCCN1CCC[C@H](C(=O)O)C1)c1sccc1C [Tiagabine Hydrochloride, (3S)-1-[4,4-bis(3-methylthiophen-2-yl)but-3-enyl]piperidine-3-carboxylic acid]
- Minimum Dose/day effective for mood stabilisation [1]: 30 mg

SMILES: CC1(C)O[C@@H]2[C@@H](CO[C@@]3(COS(N)(=O)=O)OC(C)(C)O[C@@H]23)O1 [Topiramate, 2,3:4,5-Bis-O-(1-methylethylidene)-beta-D-fructopyranose sulfamate]
- patient-reported improvements (self and other rating scales, clinical assessments) [2]: improvements in the organisation of thoughts in conversation and reading comprehension
- effect on coordination, organisation and motivation ([2]; topiramate alone 12.5-50 mg/day): effect on coordination, as well as improved organisation and motivation
- Minimum Dose/day effective for mood stabilisation [1]: 100 mg
- tolerability at initial titration (ADHD patients; 25 mg increasing to 125 mg daily, with stimulant): intolerable side effects and ceasing of medication
- Conners' Adult ADHD Rating scales (self and observer), DEM, clinician interview (ADHD patients; re-titration commencing at 6.25 or 12.5 mg, with stimulant): significant improvements

SMILES: C=CC(N)CCC(=O)O (centres unmarked) [Vigabatrin]
- Minimum Dose/day effective for mood stabilisation [1]: 1000 mg

SMILES: NS(=O)(=O)Cc1noc2ccccc12 [Zonisamide]
- Minimum Dose/day effective for mood stabilisation [1]: 200 mg

SMILES: CCCC(CCC)C(=O)O.[Na] [sodium valproate, sodium di-n-propylacetic acid]
- psychosocial functioning (patient description, clinical review) (adults with ADHD; VPA added to dexamphetamine, dose below that for bipolar disorder): overall improvement in psychosocial functioning
- adverse effect at higher dosages (adults with ADHD; in vivo): general cognitive and a resultant loss of efficacy
- adverse effect at higher doses (adults with ADHD; in vivo): general cognitive slowing and the resultant loss of efficacy
- oculomotor function, Developmental Eye Movement Test (DEM) (adults with ADHD; [4]): has shown improvement
- reading and verbal comprehension abilities (patient report) (adults with ADHD; [4]): improvement in their reading and verbal comprehension abilities
- patient-reported improvements (self and other rating scales, clinical assessments) [2]: improvements in the organisation of thoughts in conversation and reading comprehension
- function and symptoms in Generalised Anxiety Disorder [3]: sustained improvement in function and a reduction in symptoms
